Some results are limits rather than exact numbers.

Sequence of IDO1 (P14902 whole entry): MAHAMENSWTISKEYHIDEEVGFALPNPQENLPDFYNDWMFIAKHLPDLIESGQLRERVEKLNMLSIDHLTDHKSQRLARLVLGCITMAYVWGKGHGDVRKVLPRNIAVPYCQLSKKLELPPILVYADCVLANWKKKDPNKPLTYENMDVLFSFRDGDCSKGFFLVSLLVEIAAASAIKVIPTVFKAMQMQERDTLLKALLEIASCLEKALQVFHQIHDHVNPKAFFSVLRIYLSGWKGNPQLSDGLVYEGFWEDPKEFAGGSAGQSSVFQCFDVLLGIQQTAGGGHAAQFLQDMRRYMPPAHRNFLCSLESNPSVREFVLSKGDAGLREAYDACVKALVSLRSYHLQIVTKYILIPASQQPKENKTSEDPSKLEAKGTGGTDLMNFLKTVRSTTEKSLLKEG

This assay has as its target IDO1 (Homo sapiens, UniProt P14902). Put plainly: IDO1 PBMC RapidFire MS Assay. Format: cell-based. The arrangement: stimulated with human interferon-γ (IFN-γ); host or cells: human PBMC stimulated with IFN-gamma and LPS. The conditions noted are these: human PBMC stimulated with IFN-γ and LPS; kynurenine detected by mass spectrometry; 2 days; read-out: IDO1 PBMC pIC50 (converted). The procedure: IDO1 PBMC RapidFire MS Assay
Compounds of the present invention were tested via high-throughput cellular assays utilizing detection of kynurenine via mass spectrometry and cytotoxicity as end-points. For the mass spectrometry and cytotoxicity assays, human peripheral blood mononuclear cells (PBMC) (PB003F; AllCells®, Alameda, Calif.) were stimulated with human interferon-γ (IFN-γ) (Sigma-Aldrich Corporation, St. Louis, Mo.) and lipopolysaccharide from Salmonella minnesota (LPS) (Invivogen, San Diego, Calif.) to induce the expression of indoleamine 2, 3-dioxygenase (IDO1). Compounds with IDO1 inhibitory properties decreased the amount of kynurenine produced by the cells via the tryptophan catabolic pathway. Cellular toxicity due to the effect of compound treatment was measured using CellTiter-Glo® reagent (CTG) (Promega Corporation, Madison, Wis.), which is based on luminescent detection of ATP, an indicator of metabolically active cells.
In preparation for the assays, test compounds were serially diluted 3-fold in DMSO from a typical top concentration of 1 mM or 5 mM and plated at 0.5 μL in 384-well, polystyrene, clear bottom, tissue culture treated plates with lids (Greiner Bio-One, Kremsmünster, Austria) to generate 11-point dose response curves. Low control wells (0% kynurenine or 100% cytotoxicity) contained either 0.5 μL of DMSO in the presence of unstimulated (−IFN-γ/-LPS) PBMCs for the mass spectrometry assay or 0.5 μL of DMSO in the absence of cells for the cytotoxicity assay, and high control wells (100% kynurenine or 0% cytotoxicity) contained 0.5 μL of DMSO in the presence of stimulated (+IFN-γ/+LPS) PBMCs for both the mass spectrometry and cytotoxicity assays.
Frozen stocks of PBMCs were washed and recovered in RPMI 1640 medium (Thermo Fisher Scientific, Inc., Waltham, Mass.) supplemented with 10% v/v heat-inactivated fetal bovine serum (FBS) (Thermo Fisher Scientific, Inc., Waltham, Mass.), and 1× penicillin-streptomycin antibiotic solution (Thermo Fisher Scientific, Inc., Waltham, Mass.). The cells were diluted to 1,000,000 cells/mL in the supplemented RPMI 1640 medium. 50 μL of either the cell suspension, for the mass spectrometry assay, or medium alone, for the cytotoxicity assay, were added to the low control wells, on the previously prepared 384-well compound plates, resulting in 50,000 cells/well or 0 cells/well respectively. IFN-γ and LPS were added to the remaining cell suspension at final concentrations of 100 ng/ml and 50 ng/ml respectively, and 50 μL of the stimulated cells were added to all remaining wells on the 384-well compound plates. The plates, with lids, were then placed in a 37° C., 5% CO2 humidified incubator for 2 days.
Following incubation, the 384-well plates were removed from the incubator and allowed to equilibrate to room temperature for 30 minutes. For the cytotoxicity assay, CellTiter-Glo® was prepared according to the manufacturer's instructions, and 40 μL were added to each plate well. After a twenty minute incubation at room temperature, luminescence was read on an EnVision® Multilabel Reader (PerkinElmer Inc., Waltham, Mass.). For the mass spectrometry assay, 10 μL of supernatant from each well of the compound-treated plates were added to 40 μL of acetonitrile, containing 10 μM of an internal standard for normalization, in 384-well, polypropylene, V-bottom plates (Greiner Bio-One, Kremsmünster, Austria) to extract the organic analytes. Following centrifugation at 2000 rpm for 10 minutes, 10 μL from each well of the acetonitrile extraction plates were added to 90 μL of sterile, distilled H2O in 384-well, polypropylene, V-bottom plates for analysis of kynurenine and the internal standard on the RapidFire 300 (Agilent Technologies, Santa Clara, Calif.) and 4000 QTRAP MS (SCIEX, Framingham, Mass.). MS data were integrated using Agilent Technologies' RapidFire Integrator software, and data were normalized for analysis as a ratio of kynurenine to the internal standard. […]
As for `CC(C)CN(c1cnc(C2(C(=O)O)CC2)cc1Nc1ccc(Cl)cn1)C1CCOCC1` [Example 25], the IC50 is 50.1 nM.
Next, `CC(C)CN(c1ncc(C(C)(C)C(=O)O)cc1Nc1ccc(Cl)cn1)C1CCOCC1` [Example 6, 2-(5-((5-chloropyridin-2-yl)amino)-6-(isobutyl(tetrahydro-2H-pyran-4-yl)amino)pyridin-3-yl)-2-methylpropanoic acid]: 6.31 nM; `CC(C)CN(c1ccc(C2(C(=O)O)CC2)cc1Nc1nnc(C2CC2)s1)C1CCOCC1` [Example 14, 1-(3-((5-cyclopropyl-1,3,4-thiadiazol-2-yl)amino)-4-(isobutyl(tetrahydro-2H-pyran-4-yl)amino)phenyl)cyclopropane-1-carboxylic acid]: 15.8 nM; `CC(C)CN(c1ncc(C2(C(=O)NS(=O)(=O)C(F)(F)F)CC2)cc1Nc1ccc(Cl)cn1)C1CCOCC1` [Example 11, 1-(5-((5-chloropyridin-2-yl)amino)-6-(isobutyl(tetrahydro-2H-pyran-4-yl)amino)pyridin-3-yl)-N-((trifluoromethyl)sulfonyl)cyclopropane-1-carboxamide]: 31.6 nM.
Consider `CC(C)CN(c1ccc(C2(C(=O)NS(C)(=O)=O)CC2)cc1Nc1cnc(C#N)nc1)C1CCOCC1` [Example 23], for which the IC50 was 50.1 nM.
Next, `COCc1ccc(Nc2cc(C3(C(=O)NS(C)(=O)=O)CC3)ccc2N(CC(C)C)C2CCOCC2)cn1` [Example 21, 1-(4-(isobutyl(tetrahydro-2H-pyran-4-yl)amino)-3-((6-(methoxymethyl)pyridin-3-yl)amino)phenyl)-N-(methylsulfonyl)cyclopropane-1-carboxamide]: 39.8 nM; `COc1ncc(Nc2cc(C3(C(=O)NS(C)(=O)=O)CC3)ccc2N(CC(C)C)C2CCOCC2)cn1` [Example 20, 1-(4-(isobutyl(tetrahydro-2H-pyran-4-yl)amino)-3-((2-methoxypyrimidin-5-yl)amino)phenyl)-N-(methylsulfonyl)cyclopropane-1-carboxamide]: 12.6 nM; `CC(C)CN(c1ncc(C2(C(=O)NS(C)(=O)=O)CC2)cc1Nc1ccc(Cl)cn1)C1CCOCC1` [Example 10, 1-(5-((5-chloropyridin-2-yl)amino)-6-(isobutyl(tetrahydro-2H-pyran-4-yl)amino)pyridin-3-yl)-N-(methylsulfonyl)cyclopropane-1-carboxamide]: 5.01 nM.
Next, `CC(C)CN(c1ccc(C2(C(=O)NS(C)(=O)=O)CC2)cc1Nc1cnc(C(N)=O)nc1)C1CCOCC1` [Example 22]: above 10000 nM; `CC(C)CN(c1ccc(C2(C(=O)O)CC2)cc1Nc1ccc(Cl)cn1)C1CCOCC1` [Example 5, 1-(3-((5-chloropyridin-2-yl)amino)-4-(isobutyl(tetrahydro-2H-pyran-4-yl)amino)phenyl)cyclopropane-1-carboxylic acid]: 6.31 nM; `CC(C)CN(c1ccc(C2(C(=O)NS(C)(=O)=O)CC2)cc1Nc1nnc(C2CC2)s1)C1CCOCC1` [Example 19, 1-(3-((5-cyclopropyl-1,3,4-thiadiazol-2-yl)amino)-4-(isobutyl(tetrahydro-2H-pyran-4-yl)amino)phenyl)-N-(methylsulfonyl)cyclopropane-1-carboxamide]: 5.01 nM.
Take `CC(C)CN(c1ncc(C(C)(C)C(=O)NS(C)(=O)=O)cc1Nc1ccc(Cl)cn1)C1CCOCC1` [Example 7, 2-(5-((5-chloropyridin-2-yl)amino)-6-(isobutyl(tetrahydro-2H-pyran-4-yl)amino)pyridin-3-yl)-2-methyl-N-(methylsulfonyl)propanamide]: the IC50 was 5.01 nM.
Next, `CC(C)CN(CC(C)C)c1ccc(C(C)(C)C(=O)O)cc1Nc1ccc(Cl)cn1` [Example 12, 2-(3-((5-chloropyridin-2-yl)amino)-4-(diisobutylamino)phenyl)-2-methylpropanoic acid]: 25.1 nM.

The values above are taken from US20210139467A1 (GLAXOSMITHKLINE INTELLECTUAL PROPERTY DEVELOPMENT LIMITED, priority 2017, published 2021).
